18 compounds from US12552767B2, “3-heteroaryl pyrrolidine and piperidine orexin receptor agonists” (Merck Sharp & Dohme LLC, priority 2020, dated 2026) can be followed below.

Where only a bound is given, the exact number is not on record here.

The target of this experiment is T1, human OX2R (Homo sapiens, UniProt O43614).
T1 construct: expressed in transfected cells; host or cells: CHO (Chinese hamster ovary) cells, grown under G418 selection
T1 sequence (O43614 1-444): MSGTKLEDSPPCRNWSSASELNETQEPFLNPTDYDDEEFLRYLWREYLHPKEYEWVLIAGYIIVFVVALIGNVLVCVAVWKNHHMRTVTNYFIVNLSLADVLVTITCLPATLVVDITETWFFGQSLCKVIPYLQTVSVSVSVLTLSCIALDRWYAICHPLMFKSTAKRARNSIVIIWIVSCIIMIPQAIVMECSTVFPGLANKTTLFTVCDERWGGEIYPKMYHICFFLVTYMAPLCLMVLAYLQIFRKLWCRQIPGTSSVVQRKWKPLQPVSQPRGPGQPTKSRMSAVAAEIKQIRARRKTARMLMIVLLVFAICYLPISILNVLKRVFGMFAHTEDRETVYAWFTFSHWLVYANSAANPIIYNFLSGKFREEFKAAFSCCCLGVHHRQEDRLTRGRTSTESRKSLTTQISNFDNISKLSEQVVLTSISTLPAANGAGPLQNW
Briefly: IP-One (IPOne) orexin receptor agonist assay in CHO cells expressing human OX2R. The format is cell-based. Particulars: for EC50: CHO cells expressing human OX2R, IP-One IP-1 detection, 2 hours incubation, four parameter logistic fit, read-out: OX2R Potency, EC50; for % of reference agonist maximal effect: human OX2R, percentage of sample raw value/mean max effect (reference compound at 1 uM with 100% activity). From the text: The utility of the compounds in accordance with the present invention as orexin receptor OX1R and/or OX2R agonists may be readily determined without undue experimentation by methodology well known in the art. Both the OX1R and/or OX2R G-coupled protein receptors (GPCRs) couple through the Gαq signaling pathway, which ultimately promotes calcium mobilization via inositol triphosphate (IP3) production. The half-life of IP-3 is relatively short, being rapidly metabolized to inositol monophosphate (IP-1), which can be readily detected using a commercially available assay kit (IP-One; Cisbio; cat #621PAPEC) coupled with a cell line expressing the target receptor(s) of interest. The utility of the compounds in accordance with the present invention as orexin receptor OX1R and/or OX2R agonists may be determined utilizing this assay.
In a typical experiment, the OX1 and OX2 receptor agonist activity is determined in accordance with the following general experimental method. Chinese hamster ovary (CHO) cells expressing human OX1R and/or the human OX2R were grown in Iscove's modified DMEM containing glutaMAX™, 1% G418, 100 U/mL penicillin, 100 μg/mL streptomycin and 10% heat-inactivated qualified fetal bovine serum (FBS). The OX2R cells were seeded at 10,000 cells/well/50 μL and the OX1R cells were seeded at 20,000 cells/well/50 μL into 384-well white tissue culture plates (Greiner; cat #781080). All cell/media reagents were from GIBCO-Invitrogen Corp. The seeded cell plate(s) were incubated at 37° C. with 5% CO2 and 85% humidity for 20-24 hours. On the day of the assay, assay-ready compound plates were prepared using an acoustic liquid handler (ECHO; Labcyte), which dispensed sufficient volume of test compound stock (10 mM in DMSO) or 100% DMSO to prepare 10 point, ½-log dilutions in a final volume of 202.5 nL/well in all test wells of a 384-well diamond plate (Labcyte). Following completion of assay-ready plates, importantly, the next three steps were performed with minimal delay: 1) 20 μl of 1× stimulation buffer was added to the compound plate using a Multidrop Combi (small cassette, Thermo Fisher Scientific cat #24073290); 2) culture medium was removed from the cell plate using the Bluewasher plate washer (gentle spin; BlueCatBio); 3) 14 μl of compound/stimulation buffer mixture was added to the cell plate using a Bravo liquid handler (Agilent) prior to incubating cell plates at 37° C. with 5% CO2 and 85% humidity for 1 or 2 hours (OX1R and OX2R, respectively). During this incubation, IP-one detection reagents were prepared (38:1:1 lysis buffer:D2:AB-cryptate reagents). Six μL of mixed detection reagents were added to the cell plate using a Multidrop Combi (small cassette, Thermo Fisher Scientific cat #24073290) and incubated 60 minutes at room temperature in the dark. Fluorescence signal was detected using an Envision plate reader (Perkin Elmer) [LANCE/DELFIA Dual Enh (Em: APC 665; Ex: Cy5 620)].
For each compound, data were fit to a four parameter logistic fit (ActivityBase software) and the EC50 was reported as the inflection point of the resulting curve. Percent effect for each test compound was determined as the percentage of sample raw value/mean max effect, where the mean max effect was derived from the mean raw value of 32 control wells per assay plate (using Orexin A (cat #003-30) at 1 μM for human OX1R and a reference compound at 1 uM with 100% activity previously established by comparison to Orexin A for human OX2R). The intrinsic orexin receptor agonist activity of a compound which may be used in the present invention may be determined by these assays.

In the case of `O=C(N1CCC[C@H](c2cc[nH]n2)[C@@H]1CO[C@H]1CC[C@@H](c2ccccc2)CC1)C1(O)CC1` (relative stereo) [Example 78, (1-hydroxycyclopropyl)((CIS)-2-((((CIS)-4-phenylcyclohexyl)oxy)methyl)-3-(1H-pyrazol-3-yl)piperidin-1-yl)methanone], the concentration giving a half-maximal response (EC50) (commonly the concentration at which the effect is half-maximal) came out at 4.43 µM and the “% of reference agonist maximal effect” value is 92.6%.
The like results for `COC(=O)N1CCC[C@H](c2nc(O)sc2C)[C@@H]1CO[C@H]1CC[C@@H](c2ccccc2)CC1` (relative stereo) [Example 2, Methyl (CIS)-3-(2-hydroxy-5-methylthiazol-4-yl)-2-((((CIS)-4-phenylcyclohexyl)oxy)-methyl)piperidine-1-carboxylate] were, in that order, 0.0151 µM and 101.9%.
Turning to `CC[C@H](C)OC(=O)N1CCC[C@H](c2cc[nH]n2)[C@@H]1CO[C@H]1CC[C@@H](c2ccccc2)CC1` [Example 116, (S)-sec-butyl (CIS)-2-((((CIS)-4-phenylcyclohexyl)oxy)methyl)-3-(1H-pyrazol-3-yl)piperidine-1-carboxylate], the EC50 was determined as 7.76 µM and the “% of reference agonist maximal effect” value is given as 56.1%.
The like results for `CCNC(=O)N1C(C)CCC(c2ccn[nH]2)C1COC1CCC(C(C)C)CC1` (stereo not drawn) [Example 38, N-ethyl-2-(((4-isopropylcyclohexyl)oxy)methyl)-6-methyl-3-(H-pyrazol-5-yl)piperidine-1-carboxamide] were, in that order, 0.241 µM and 95.0%.
The corresponding values for `O=C(OC1CCC1)N1CCC[C@H](c2cc[nH]n2)[C@@H]1CO[C@H]1CC[C@@H](c2ccccc2)CC1` (relative stereo) [Example 112, cyclobutyl (CIS)-2-((((CIS)-4-phenylcyclohexyl)oxy)methyl)-3-(1H-pyrazol-3-yl)piperidine-1-carboxylate] are 6.36 µM and 61.6%.
The like results for `C#CCOC(=O)N1CCC[C@H](c2cc[nH]n2)[C@@H]1CO[C@H]1CC[C@@H](c2ccccc2)CC1` (relative stereo) [Example 100, prop-2-yn-1-yl (CIS)-2-((((CIS)-4-phenylcyclohexyl)oxy)methyl)-3-(1H-pyrazol-3-yl)piperidine-1-carboxylate] were, in that order, 2.36 µM and 61.8%.
On to `CCNC(=O)N1CCCC(c2[nH]ncc2C)C1COC1CCC(C(C)C)CC1` (single isomer, unassigned) [Example 61, N-ethyl-2-(((4-isopropylcyclohexyl)oxy)methyl)-3-(4-methyl-1H-pyrazol-5-yl)piperidine-1-carboxamide], for which the EC50 was 3.51 µM and the “% of reference agonist maximal effect” value is reported as 87.4%.
The corresponding values for `CC[C@H](C)COC(=O)N1CCC[C@H](c2cc[nH]n2)[C@@H]1CO[C@H]1CC[C@@H](c2ccccc2)CC1` [Example 107, (S)-2-methylbutyl (CIS)-2-((((CIS)-4-phenylcyclohexyl)oxy)methyl)-3-(1H-pyrazol-3-yl)piperidine-1-carboxylate] are 5.09 µM and 52.4%.
Regarding `CCNC(=O)N1CCCC(c2nc[nH]n2)C1CO[C@H]1CC[C@@H](C(C)C)CC1` (single isomer, unassigned) [Example 62, N-ethyl-2-((((CIS)-4-isopropylcyclohexyl)oxy)methyl)-3-(1H-1,2,4-triazol-3-yl)piperidine-1-carboxamide], the EC50 was more than 10 µM and the “% of reference agonist maximal effect” value was 11.9%.
As for `C=CCC(=O)N1CCC[C@H](c2cc[nH]n2)[C@@H]1CO[C@H]1CC[C@@H](C(C)C)CC1` (relative stereo) [Example 84, 1-((CIS)-2-((((CIS)-4-isopropylcyclohexyl)oxy)methyl)-3-(1H-pyrazol-3-yl)piperidin-1-yl)but-3-en-1-one], the EC50 is 7.14 µM and the “% of reference agonist maximal effect” value is given as 71.1%.
As for `CC1(C)C[C@H]1C(=O)N1CCC[C@H](c2cc[nH]n2)[C@@H]1COC1CCC(c2ccccc2)CC1` (relative stereo) [Example 91, ((R)-2,2-dimethylcyclopropyl)((CIS)-2-((((CIS)-4-phenylcyclohexyl)oxy)methyl)-3-(1H-pyrazol-3-yl)piperidin-1-yl)methanone], the EC50 amounted to 6.7 µM and the “% of reference agonist maximal effect” value is on record as 81%.
The like results for `CC#CCOC(=O)N1CCC[C@H](c2cc[nH]n2)[C@@H]1CO[C@H]1CC[C@@H](c2ccccc2)CC1` (relative stereo) [Example 103, but-2-yn-1-yl (CIS)-2-((((CIS)-4-phenylcyclohexyl)oxy)methyl)-3-(1H-pyrazol-3-yl)piperidine-1-carboxylate] were, in that order, 3.61 µM and 73.6%.
In the case of `CC(OC(=O)N1CCC[C@H](c2cc[nH]n2)[C@@H]1CO[C@H]1CC[C@@H](c2ccccc2)CC1)C(F)F` (relative stereo) [Example 99, 1,1-difluoropropan-2-yl (CIS)-2-((((CIS)-4-phenylcyclohexyl)oxy)methyl)-3-(1H-pyrazol-3-yl)piperidine-1-carboxylate], the EC50 is 1.82 µM and the “% of reference agonist maximal effect” value turned out to be 88.9%.
The corresponding values for `C#CCOC(=O)N1CCC[C@H](c2cc[nH]n2)[C@@H]1CO[C@H]1CC[C@@H](C(C)C)CC1` (relative stereo) [Example 95, prop-2-yn-1-yl (CIS)-2-((((CIS)-4-isopropylcyclohexyl)oxy)methyl)-3-(1H-pyrazol-3-yl)piperidine-1-carboxylate] are 8.77 µM and 79.7%.
`CC(C)[C@H]1CC[C@@H](OC[C@H]2[C@@H](c3cc[nH]n3)CCCN2C(=O)CCC2CC2)CC1` (relative stereo) [Example 88, 3-cyclopropyl-1-((CIS)-2-((((CIS)-4-isopropylcyclohexyl)oxy)methyl)-3-(1H-pyrazol-3-yl)piperidin-1-yl)propan-1-one]: the EC50 came to 8.98 µM and the “% of reference agonist maximal effect” value was 79%.
The like results for `CCNC(=O)N1CCC[C@H](c2n[nH]cc2C)[C@@H]1CO[C@H]1CC[C@@H](c2cccc(F)c2)CC1` (single isomer, unassigned) [Example 11] were, in that order, 0.0023 µM and 100.1%.
With `O=C(OCC(F)F)N1CCC[C@H](c2cc[nH]n2)[C@@H]1CO[C@H]1CC[C@@H](c2ccccc2)CC1` (relative stereo) [Example 96, 2,2-difluoroethyl (CIS)-2-((((CIS)-4-phenylcyclohexyl)oxy)methyl)-3-(1H-pyrazol-3-yl)piperidine-1-carboxylate], the EC50 turned out to be 0.754 µM and the “% of reference agonist maximal effect” value is 91.3%.
The corresponding values for `CC(C)[C@H]1CC[C@@H](OC[C@H]2[C@@H](c3cc[nH]n3)CCCN2C(=O)NC2CCCCC2)CC1` (relative stereo) [Example 124, (CIS)-N-cyclohexyl-2-((((CIS)-4-isopropylcyclohexyl)oxy)methyl)-3-(1H-pyrazol-3-yl)piperidine-1-carboxamide] are 8.2 µM and 92.3%.
